From patent US20130165475A1, “DEUTERIUM-ENRICHED HETEROCYCLIC COMPOUNDS AS KINASE INHIBITORS” (ASCEPION PHARMACEUTICALS, INC., priority 2010, published 2013)
Structures can show the parent of a compound that is named as a salt.

Key:
EphB4 = target: T1, EphB4 (Homo sapiens, UniProt P54760); experiment: EphB4 cell-based assay (quantitative Western blotting, PC-3 cells, Ephrin-B2 stimulated); conditions: compound at 100 nM; PC-3 human prostate cancer cells; Ephrin-B2 stimulation; read-out: % EphB4 kinase activity remains
T1 construct: EphB4 autophosphorylation in PC-3 human prostate cancer cells; host or cells: PC-3 human prostate cancer cells
T1 sequence (P54760 16-987): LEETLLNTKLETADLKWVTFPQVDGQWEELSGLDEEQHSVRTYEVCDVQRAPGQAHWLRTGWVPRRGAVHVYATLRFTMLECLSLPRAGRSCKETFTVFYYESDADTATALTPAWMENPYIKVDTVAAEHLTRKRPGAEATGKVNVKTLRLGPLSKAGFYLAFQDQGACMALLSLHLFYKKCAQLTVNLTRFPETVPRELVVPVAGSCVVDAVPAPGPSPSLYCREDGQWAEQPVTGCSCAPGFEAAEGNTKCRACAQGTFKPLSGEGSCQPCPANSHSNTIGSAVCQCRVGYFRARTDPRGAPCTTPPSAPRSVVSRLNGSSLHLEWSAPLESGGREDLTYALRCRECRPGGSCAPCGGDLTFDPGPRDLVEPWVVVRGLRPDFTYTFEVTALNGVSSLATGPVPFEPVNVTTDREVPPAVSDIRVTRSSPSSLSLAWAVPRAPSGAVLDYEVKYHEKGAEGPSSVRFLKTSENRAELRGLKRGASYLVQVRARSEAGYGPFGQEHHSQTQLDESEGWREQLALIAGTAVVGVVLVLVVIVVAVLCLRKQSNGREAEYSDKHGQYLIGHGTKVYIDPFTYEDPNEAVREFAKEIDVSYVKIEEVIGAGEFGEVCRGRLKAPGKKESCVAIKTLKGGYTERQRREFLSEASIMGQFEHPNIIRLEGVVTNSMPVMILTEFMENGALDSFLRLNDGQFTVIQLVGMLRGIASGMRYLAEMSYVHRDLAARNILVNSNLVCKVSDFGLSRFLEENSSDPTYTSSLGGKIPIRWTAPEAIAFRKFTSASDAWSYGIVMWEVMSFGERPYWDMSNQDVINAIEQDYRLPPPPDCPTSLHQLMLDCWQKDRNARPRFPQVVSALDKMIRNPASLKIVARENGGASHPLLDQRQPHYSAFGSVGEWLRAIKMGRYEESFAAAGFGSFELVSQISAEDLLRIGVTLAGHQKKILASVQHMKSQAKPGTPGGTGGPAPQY
Description: A standard image-based quantitative Western blotting assay for EphB4 kinase activity can be used to test or screen the compounds of this invention and to identify EphB4 antagonists.
The kinase activity of EphB4 in cells depends on its autophosphorylation level stimulated by the binding to its ligand Ephrin-B2. High level of EphB4 autophosphorylation in PC-3 human prostate cancer cells (ATCC, USA) induced by the application of Ephrin-B2 to the cell culture can be observed by regular Western blotting assay.
A compound to be tested was first dissolved in DMSO to a concentration of 10 mM and stored at −20° C. On the day of screening procedure, the compound in DMSO was added into DMEM medium to a final concentration of 100 nM. Two hours later, Ephrin-B2 ([…]) was added into DMEM medium to stimulate the production of phosphor-EphB4. The phosphor-EphB4 was detected based on its molecular weight and with anti-phosphor protein antibody PY-20 in cell lysate from approximately 5×10^5 PC-3 cells by Western blotting followed by imaging quantification. The relative level of EphB4 kinase activity was quantified as the ratio between the amount of phosphor-EphB4 and that of total Actin proteins.

Rat liver microsome = experiment: Liver microsomal stability assay, rat; assay type: in vitro ADME; parameters: key: A: the percentage of a compound remains is greater than that of its deuterium non-enriched counterpart; B: a result otherwise; conditions: 40 μM, 37° C., 30 min, 1 mg/ml microsome proteins; class relative to deuterium non-enriched counterpart
Procedure: A standard liver microsomal stability assay can be used to test or screen the compounds of this invention and to identify compounds with enhanced metabolic stability due to the enrichment of deuterium in the compounds. Liver microsome proteins prepared from different species such as mouse and rat were obtained from a commercial source (Research Institute for Liver Diseases, Shanghai, China). The assay was conducted in 1.5% potassium hydrogenphosphate (K2HPO4) in the presence of liver microsome proteins at 1 mg/ml and supplemented with an […] (3.3 mM NADPH, 3.3 mM glucose-6-phosphate, 6 units/ml G6PDase, and 3.3 mM magnesium chloride). Test compound was added into the assay mixture to a final concentration of 40 μM and incubated at 37° C. for 0 or 30 minutes. The reaction was stopped by the addition of 20 μM Bifonazole/CAN. Samples were then centrifuged at 14000 rpm for 10 minutes to precipitate proteins. Supernatant were then transferred to microcentrifuge tubes and subject to reverse phase HPLC analysis to determine the concentration of test compound.
The percentage of compounds that remained in the assay reactions after a thirty-minute incubation at 37° C. is calculated as the ratio between the amount of compound remained after a thirty-minute and that after a zero-minute incubation.

remaining activity at 0.1 µM (EphB4) [%] | % of compound remained at the 30th minutes, Rat liver microsome (Rat liver microsome) | Structure (SMILES)
< 70 | A | [2H]C([2H])(c1ccnc(N)c1)N1CCc2c(NC(=O)Nc3cc(Cl)ccc3OC)cccc21 [Example 1, 1-[1-[(2-Amino-4-pyridyl)-dideuteriomethyl]indolin-4-yl]-3-(5-chloro-2-methoxyphenyl)urea]
< 70 | A | [2H]C([2H])([2H])Oc1ccc(Cl)cc1NC(=O)Nc1cccc2c1CCN2C([2H])([2H])c1ccnc(N)c1 [Example 3, 1-[1-[(2-Amino-4-pyridyl)-dideuteriomethyl]indolin-4-yl]-3-[5-chloro-2-(trideuteriomethoxy)phenyl]urea]
< 70 | A | [2H]C([2H])([2H])Oc1ccc(Cl)cc1NC(=O)Nc1cccc2c1ccn2C([2H])([2H])c1ccnc(N)c1 [Example 4, 1-[1-[(2-amino-4-pyridyl)-dideuteriomethyl]indol-4-yl]-3-[5-chloro-2-(trideuteriomethoxy)phenyl]urea]
< 70 | A | [2H]C([2H])([2H])Oc1ccc(Cl)cc1NC(=O)Nc1cccc2c1CCN2Cc1ccnc(N)c1 [Example 5, 1-[1-[(2-Amino-4-pyridyl)methyl]indolin-4-yl]-3-[5-chloro-2-(trideuteriomethoxy)phenyl]urea]
< 70 | A | [2H]C([2H])([2H])Oc1ccc(Cl)cc1NC(=O)Nc1cccc2c1ccn2Cc1ccnc(N)c1 [Example 6, 1-[1-[(2-amino-4-pyridyl)methyl]indol-4-yl]-3-[5-chloro-2-(trideuteriomethoxy)phenyl]urea]
≥ 70 | A | Cl.[2H]C([2H])([2H])Oc1ccc(Cl)cc1NC(=O)Nc1cccc2c1CCN2C([2H])([2H])c1ccnc2[nH]ccc12 [Example 7, 1-[5-Chloro-2-(trideuteriomethoxy)phenyl]-3-[1-[dideuterio(1H-pyrrolo[2,3-b]pyridin-4-yl)methyl]indolin-4-yl]urea hydrochloride]
≥ 70 | A | Cl.[2H]C([2H])([2H])Oc1ccc(Cl)cc1NC(=O)Nc1cccc2c1ccn2C([2H])([2H])c1ccnc2[nH]ccc12 [Example 8, 1-[5-chloro-2-(trideuteriomethoxy)phenyl]-3-[1-[dideuterio(1H-pyrrolo[2,3-b]pyridin-4-yl)methyl]indol-4-yl]urea hydrochloride]
≥ 70 | A | [2H]C([2H])(c1ccnc2[nH]ccc12)N1CCc2c(NC(=O)Nc3cc(Cl)ccc3OC)cccc21 [Example 9, 1-(5-Chloro-2-methoxyphenyl)-3-[1-[dideuterio(1H-pyrrolo[2,3-b]pyridin-4-yl)methyl]indolin-4-yl]urea hydrochloride]
≥ 70 | B | [2H]C([2H])(c1ccnc2[nH]ccc12)n1ccc2c(NC(=O)Nc3cc(Cl)ccc3OC)cccc21 [Example 10, 1-(5-chloro-2-methoxyphenyl)-3-[1-[dideuterio(1H-pyrrolo[2,3-b]pyridin-4-yl)methyl]indol-4-yl]urea hydrochloride]
< 70 | B | [2H]C([2H])(c1ccnc2[nH]ccc12)N1CCc2c(NC(=O)Nc3cc(Cl)ccc3F)cccc21 [Example 11, 1-(5-Chloro-2-fluorophenyl)-3-[1-[dideuterio(1H-pyrrolo[2,3-b]pyridin-4-yl)methyl]indolin-4-yl]urea hydrochloride]
< 70 | A | [2H]C([2H])(c1ccnc2[nH]ccc12)n1ccc2c(NC(=O)Nc3cc(Cl)ccc3F)cccc21 [Example 12, 1-(5-chloro-2-fluorophenyl)-3-[1-[dideuterio(1H-pyrrolo[2,3-b]pyridin-4-yl)methyl]indol-4-yl]urea hydrochloride]
≥ 70 | A | [2H]C([2H])(c1ccnc2[nH]ccc12)N1CCc2c(NC(=O)Nc3cccc(C)c3)cccc21 [Example 13, 1-[1-[Dideuterio(1H-pyrrolo[2,3-b]pyridin-4-yl)methyl]indolin-4-yl]-3-(m-tolyl)urea hydrochloride]
< 70 | A | [2H]C([2H])(c1ccnc2[nH]ccc12)n1ccc2c(NC(=O)Nc3cccc(C)c3)cccc21 [Example 14, 1-[1-[dideuterio(1H-pyrrolo[2,3-b]pyridin-4-yl)methyl]indol-4-yl]-3-(m-tolyl)urea hydrochloride]
≥ 70 | A | [2H]C(c1c[nH]c2ncccc12)N1CCc2c(NC(=O)Nc3cc(Cl)ccc3OC([2H])([2H])[2H])cccc21 (centres unmarked) [Example 15, 1-[5-Chloro-2-(trideuteriomethoxy)phenyl]-3-[1-[deuterio(1H-pyrrolo[2,3-b]pyridin-3-yl)methyl]indolin-4-yl]urea]
≥ 70 | A | [2H]C(c1c[nH]c2ncccc12)n1ccc2c(NC(=O)Nc3cc(Cl)ccc3OC([2H])([2H])[2H])cccc21 (centres unmarked) [Example 16, 1-[5-chloro-2-(trideuteriomethoxy)phenyl]-3-[1-[deuterio(1H-pyrrolo[2,3-b]pyridin-3-yl)methyl]indol-4-yl]urea]
< 70 | A | [2H]C(c1c[nH]c2ncccc12)N1CCc2c(NC(=O)Nc3cc(Cl)ccc3OC)cccc21 (centres unmarked) [Example 17, 1-(5-Chloro-2-methoxyphenyl)-3-[1-[deuterio(1H-pyrrolo[2,3-b]pyridin-3-yl)methyl]indolin-4-yl]urea]
< 70 | A | [2H]C(c1c[nH]c2ncccc12)n1ccc2c(NC(=O)Nc3cc(Cl)ccc3OC)cccc21 (centres unmarked) [Example 18, 1-(5-chloro-2-methoxyphenyl)-3-[1-[deuterio(1H-pyrrolo[2,3-b]pyridin-3-yl)methyl]indol-4-yl]urea]
≥ 70 | B | [2H]C(c1c[nH]c2ncccc12)N1CCc2c(NC(=O)Nc3cc(Cl)ccc3F)cccc21 (centres unmarked) [Example 19, 1-(5-Chloro-2-fluorophenyl)-3-[1-[deuterio(1H-pyrrolo[2,3-b]pyridin-3-yl)methyl]indolin-4-yl]urea]
≥ 70 | A | [2H]C(c1c[nH]c2ncccc12)n1ccc2c(NC(=O)Nc3cc(Cl)ccc3F)cccc21 (centres unmarked) [Example 20, 1-(5-chloro-2-fluorophenyl)-3-[1-[deuterio(1H-pyrrolo[2,3-b]pyridin-3-yl)methyl]indol-4-yl]urea]
